Measured values reported in ChEMBL document CHEMBL1155422, “SAR of tertiary carbinamine derived BACE1 inhibitors: role of aspartate ligand amine pKa in enzyme inhibition” (Bioorg Med Chem Lett, 2010).

Legend:
[1] = target: T1, Beta-secretase 1 (Homo sapiens, UniProt P56817); assay: Inhibition of human BACE1 expressed in mouse fibroblast cells assessed as inhibition of secreted APPbeta-NF production at pH 7.2; assay type: cell-based
[2] = target: T1, Beta-secretase 1; assay: Inhibition of BACE1

T1 sequence (P56817 whole entry): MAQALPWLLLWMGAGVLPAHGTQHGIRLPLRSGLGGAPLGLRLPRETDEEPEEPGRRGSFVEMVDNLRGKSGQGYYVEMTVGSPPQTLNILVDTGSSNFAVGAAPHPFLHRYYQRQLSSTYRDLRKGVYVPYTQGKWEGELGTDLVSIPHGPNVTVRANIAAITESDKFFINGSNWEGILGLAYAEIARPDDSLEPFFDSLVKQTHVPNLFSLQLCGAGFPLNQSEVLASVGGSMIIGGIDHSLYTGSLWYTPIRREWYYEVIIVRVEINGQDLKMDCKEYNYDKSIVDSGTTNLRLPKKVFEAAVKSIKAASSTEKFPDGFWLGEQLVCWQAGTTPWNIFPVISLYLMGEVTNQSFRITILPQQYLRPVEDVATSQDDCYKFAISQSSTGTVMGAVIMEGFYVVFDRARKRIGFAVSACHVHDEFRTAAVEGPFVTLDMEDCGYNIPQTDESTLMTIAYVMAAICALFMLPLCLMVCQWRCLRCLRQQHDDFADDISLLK

IC50 [1]	IC50 [2]	SMILES
684 nM	0.31 µM	C[C@@H](NC(=O)c1cc(COC(=O)C(N)(CO)Cc2ccccc2)cc(N(C)S(C)(=O)=O)c1)c1ccc(F)cc1 (some centres undefined)
	5.72 µM	C[C@@H](NC(=O)c1cc(CNC(=O)C(C)(N)Cc2ccccc2)cc(N(C)S(C)(=O)=O)c1)c1ccc(F)cc1 (some centres undefined)
	1.83 µM	C[C@@H](NC(=O)c1cc(-c2nc([C@](C)(N)Cc3ccccc3)no2)cc(N(C)S(C)(=O)=O)c1)c1ccc(F)cc1
3470 nM	10.1 µM	C[C@@H](NC(=O)c1cc(CNC[C@](N)(CO)Cc2ccccc2)cc(N(C)S(C)(=O)=O)c1)c1ccc(F)cc1
	22.4 µM	C[C@@H](NC(=O)c1cc(CCC[C@](N)(CO)Cc2ccccc2)cc(N(C)S(C)(=O)=O)c1)c1ccc(F)cc1
	70.5 µM	C[C@@H](NC(=O)c1cc(OCCC(N)(CO)Cc2ccccc2)cc(N(C)S(C)(=O)=O)c1)c1ccc(F)cc1 (some centres undefined)
	> 100 µM	CNC(CO)(COC(=O)c1cc(C(=O)N[C@H](C)c2ccc(F)cc2)cc(N(C)S(C)(=O)=O)c1)Cc1ccccc1 (some centres undefined)
580 nM	1.37 µM	C[C@@H](NC(=O)c1cc(COC[C@](N)(CO)Cc2ccccc2)cc(N(C)S(C)(=O)=O)c1)c1ccc(F)cc1
	22.2 µM	C[C@@H](NC(=O)c1cc(C(=O)OCC(O)(CN)Cc2ccccc2)cc(N(C)S(C)(=O)=O)c1)c1ccc(F)cc1 (some centres undefined)
	> 100 µM	C[C@@H](NC(=O)c1cc(NCCC(N)(CO)Cc2ccccc2)cc(N(C)S(C)(=O)=O)c1)c1ccc(F)cc1 (some centres undefined)
	16.3 µM	C[C@@H](NC(=O)c1cc(N(C)S(C)(=O)=O)cc(-n2cc([C@](C)(N)Cc3ccccc3)nn2)c1)c1ccc(F)cc1
	2.06 µM	C[C@@H](NC(=O)c1cc(-c2noc([C@](C)(N)Cc3ccccc3)n2)cc(N(C)S(C)(=O)=O)c1)c1ccc(F)cc1
138 nM	0.344 µM	C[C@@H](NC(=O)c1cc(COC[C@](C)(N)Cc2ccccc2)cc(N(C)S(C)(=O)=O)c1)c1ccc(F)cc1
432 nM	0.997 µM	C[C@@H](NC(=O)c1cc(COCC(N)(CF)Cc2ccccc2)cc(N(C)S(C)(=O)=O)c1)c1ccc(F)cc1 (mixture of isomers)

More lines, now with the values behind:

SMILES	IC50 [1]	IC50 [2]
C[C@@H](NC(=O)c1cc(COC(=O)C(C)(N)Cc2ccccc2)cc(N(C)S(C)(=O)=O)c1)c1ccc(F)cc1 (some centres undefined)	163 nM	0.019 µM
C[C@@H](NC(=O)c1cc(N(C)S(C)(=O)=O)cc(S(=O)(=O)CCC(N)(CO)Cc2ccccc2)c1)c1ccc(F)cc1 (some centres undefined)		> 100 µM
C[C@@H](NC(=O)c1cc(CNC(=O)C(N)(CO)Cc2ccccc2)cc(N(C)S(C)(=O)=O)c1)c1ccc(F)cc1 (some centres undefined)		18.1 µM
C[C@@H](NC(=O)c1cc(C(=O)NCC(N)(CO)Cc2ccccc2)cc(N(C)S(C)(=O)=O)c1)c1ccc(F)cc1 (some centres undefined)		10.8 µM
C[C@@H](NC(=O)c1cc(C(=O)NCC(O)(CO)Cc2ccccc2)cc(N(C)S(C)(=O)=O)c1)c1ccc(F)cc1 (some centres undefined)		24.9 µM
C[C@@H](NC(=O)c1cc(-c2n[nH]c([C@](C)(N)Cc3ccccc3)n2)cc(N(C)S(C)(=O)=O)c1)c1ccc(F)cc1	4740 nM	0.822 µM
C[C@@H](NC(=O)c1cc(SCCC(N)(CO)Cc2ccccc2)cc(N(C)S(C)(=O)=O)c1)c1ccc(F)cc1 (some centres undefined)		> 100 µM
C[C@@H](NC(=O)c1cc(COC[C@H](N)Cc2ccccc2)cc(N(C)S(C)(=O)=O)c1)c1ccc(F)cc1	1710 nM	10.1 µM
C[C@@H](NC(=O)c1cc(-c2nnc([C@](C)(N)Cc3ccccc3)s2)cc(N(C)S(C)(=O)=O)c1)c1ccc(F)cc1		29.9 µM
C[C@@H](NC(=O)c1cc(-c2ncc([C@](C)(N)Cc3ccccc3)o2)cc(N(C)S(C)(=O)=O)c1)c1ccc(F)cc1	5 nM	0.007 µM
C[C@@H](NC(=O)c1cc(COCC(N)(Cc2ccccc2)C(F)F)cc(N(C)S(C)(=O)=O)c1)c1ccc(F)cc1 (mixture of isomers)	> 20000 nM	0.925 µM
COCC(N)(COCc1cc(C(=O)N[C@H](C)c2ccc(F)cc2)cc(N(C)S(C)(=O)=O)c1)Cc1ccccc1 (mixture of isomers)		> 100 µM
C[C@@H](NC(=O)c1cc(-c2ccc(C(C)(N)Cc3ccccc3)o2)cc(N(C)S(C)(=O)=O)c1)c1ccc(F)cc1 (mixture of isomers)	4 nM	0.02 µM
CCC(N)(COCc1cc(C(=O)N[C@H](C)c2ccc(F)cc2)cc(N(C)S(C)(=O)=O)c1)Cc1ccccc1 (mixture of isomers)		22 µM
